The values that follow come from US11912723B2, “KRAS modulators and uses thereof” (Quanta Therapeutics, Inc., priority 2022, dated 2024).

For the assay, the target named is T1, GST-tagged KRAS G12D (2-169) (Homo sapiens, UniProt P01116, G12D).
T1 construct: GST-tagged KRAS^G12D (2-169, Reaction Biology, MSC-11-539); purchased Reaction Biology MSC-11-539 (KRAS G12D); MSC-11-502 (SOS1cat)
Kind of assay: Nucleotide exchange assay (NEA), HTRF of SOS-mediated GTP-DY-647P1 binding. It counts as biochemical. As to conditions: 5 nM GST-KRAS G12D, 20 nM SOScat, 150 nM GTP; compound 1 h at RT. In outline: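 After 1 h RT preincubation of compound with KRAS, SOS1cat (20 nM final) and fluorescent GTP analog (150 nM) were added to 5 nM KRAS; HTRF (anti-GST Tb donor) followed at RT for up to 90 min. % inhibition relative to DMSO and no-SOS1 blank, 4-parameter curve fit.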
Background: In TR-FRET formats the signal depends on donor and acceptor labels being close together.

T1 sequence (P01116 2-169 isoform P01116-2 G12D): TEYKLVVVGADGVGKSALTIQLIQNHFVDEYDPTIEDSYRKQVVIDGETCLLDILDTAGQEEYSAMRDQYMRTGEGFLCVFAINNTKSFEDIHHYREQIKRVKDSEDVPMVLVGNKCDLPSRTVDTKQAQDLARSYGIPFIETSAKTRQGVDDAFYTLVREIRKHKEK

In general, IC50 refers to the concentration that gives 50% inhibition. Read a high IC50 as weaker potency in that assay. `CN(C)C(=O)c1nn2c(c1Cl)CN(c1nc(OCC3(CN4CCOCC4)CC3)nc3c1CO[C@@]1(CCc4c(Cl)cccc41)C3)CCC2` [Compound 47, 3-chloro-5-[(7S)-4′-chloro-2-[[1-(morpholinomethyl)cyclopropyl]methoxy]spiro[5,8-dihydropyrano[4,3-d]pyrimidine-7,1′-indane]-4-yl]-N,N-dimethyl-4,6,7,8-tetrahydropyrazolo[1,5-a][1,4]diazepine-2-carboxamide] registered an IC50 of under 10 nM.
`N#CC1CCCN(c2nc(OC[C@@]34CCCN3C[C@H](F)C4)nc3c2COC2(CCc4c(Cl)cccc42)C3)CC1` (stereo partly drawn) [Compound 16, 1-(4-chloro-2′-(((2R,7aS)-2-fluorotetrahydro-1H-pyrrolizin-7a(5H)-yl)methoxy)-2,3,5′,8′-tetrahydrospiro[indene-1,7′-pyrano[4,3-d]pyrimidin]-4′-yl)azepane-4-carbonitrile] registered an IC50 of 1000 to 20000 nM.
`F[C@H]1CN2CCC[C@@]2(COc2nc3c(c(N4CCCCCC4)n2)COC2(CCCc4c(Br)cccc42)C3)C1` (stereo partly drawn) [Compound 5, 4-(azepan-1-yl)-5′-bromo-2-[[(2R,8S)-2-fluoro-1,2,3,5,6,7-hexahydropyrrolizin-8-yl]methoxy]spiro[5,8-dihydropyrano[4,3-d]pyrimidine-7,1′-tetralin]] gave a half-maximal inhibitory concentration (IC50) of 1000 to 20000 nM.
Under `C=C1CN2CCCC2(COc2nc3c(c(N4CCCn5nc(C(=O)N(C)C)c(Cl)c5C4)n2)CO[C@@]2(CCc4c(Cl)cccc42)C3)C1` (mixture of isomers) [Compound 54, 3-chloro-N,N-dimethyl-5-[rac-(7S)-4′-chloro-2-[(6-methylene-2,3,5,7-tetrahydro-1H-pyrrolizin-8-yl)methoxy]spiro[5,8-dihydropyrano[4,3-d]pyrimidine-7,1′-indane]-4-yl]-4,6,7,8-tetrahydropyrazolo[1,5-a][1,4]diazepine-2-carboxamide] stands under 10 nM.
`CN(C)C(=O)c1nn2c(c1Cl)CN(c1nc(OC[C@@]34CCCN3C[C@H](F)C4)nc3c1CN(C)[C@@]1(CCc4cccc(Cl)c41)C3)CCC2` [Compound 69, 3-chloro-5-[(7S)-7′-chloro-2-[[(2R,8S)-2-fluoro-1,2,3,5,6,7-hexahydropyrrolizin-8-yl]methoxy]-6-methyl-spiro[5,8-dihydropyrido[4,3-d]pyrimidine-7,1′-indane]-4-yl]-N,N-dimethyl-4,6,7,8-tetrahydropyrazolo[1,5-a][1,4]diazepine-2-carboxamide] came in with a half-inhibitory concentration (IC50) of under 10 nM.
Under `Cc1c(C(=O)N(C)C)nn2c1CN(c1nc(OC[C@@]34CCCN3C[C@H](F)C4)nc3c1CO[C@@]1(CCc4c(Cl)cccc41)C3)CCC2` [Compound 42, 5-[(7S)-4′-chloro-2-[[(2R,8S)-2-fluoro-1,2,3,5,6,7-hexahydropyrrolizin-8-yl]methoxy]spiro[5,8-dihydropyrano[4,3-d]pyrimidine-7,1′-indane]-4-yl]-N,N,3-trimethyl-4,6,7,8-tetrahydropyrazolo[1,5-a][1,4]diazepine-2-carboxamide] stands under 10 nM; under `CN(C)C(=O)c1nn2c(c1Cl)CN(c1nc(OC[C@@]34CCCN3C[C@H](F)C4)nc3c1CN(C)[C@@]1(CCc4c(F)cccc41)C3)CCC2` [Compound 65, 3-chloro-5-[(7S)-4′-fluoro-2-[[(2R,8S)-2-fluoro-1,2,3,5,6,7-hexahydropyrrolizin-8-yl]methoxy]-6-methyl-spiro[5,8-dihydropyrido[4,3-d]pyrimidine-7,1′-indane]-4-yl]-N,N-dimethyl-4,6,7,8-tetrahydropyrazolo[1,5-a][1,4]diazepine-2-carboxamide], under 10 nM; under `CN(C)C(=O)c1nn2c(c1Cl)CN(c1nc(OC[C@@]34CCCN3C[C@H](F)C4)nc3c1CN(C)[C@@]1(CCc4cccc(F)c41)C3)CCC2` [Compound 63, 3-chloro-5-[(7S)-7′-fluoro-2-[[(2R,8S)-2-fluoro-1,2,3,5,6,7-hexahydropyrrolizin-8-yl]methoxy]-6-methyl-spiro[5,8-dihydropyrido[4,3-d]pyrimidine-7,1′-indane]-4-yl]-N,N-dimethyl-4,6,7,8-tetrahydropyrazolo[1,5-a][1,4]diazepine-2-carboxamide], under 10 nM.
In turn, `O=C(c1nn2c(c1Cl)CN(c1nc(OC[C@@]34CCCN3C[C@H](F)C4)nc3c1CO[C@@]1(CCc4c(Cl)cccc41)C3)CCC2)N1CCOCC1` [Compound 45, [3-chloro-5-[(7S)-4′-chloro-2-[[(2R,8S)-2-fluoro-1,2,3,5,6,7-hexahydropyrrolizin-8-yl]methoxy]spiro[5,8-dihydropyrano[4,3-d]pyrimidine-7,1′-indane]-4-yl]-4,6,7,8-tetrahydropyrazolo[1,5-a][1,4]diazepin-2-yl]-morpholino-methanone] registered an IC50 of under 10 nM.
Under `CN(C)C(=O)c1nn2c(c1Cl)CN(c1nc(OC[C@@]34CCCN3C[C@H](F)C4)nc3c1CN(C)[C@@]1(CCc4c(F)ccc(F)c41)C3)CCC2` [Compound 61, 3-chloro-5-[(7S)-4′,7′-difluoro-2-[[(2R,8S)-2-fluoro-1,2,3,5,6,7-hexahydropyrrolizin-8-yl]methoxy]-6-methyl-spiro[5,8-dihydropyrido[4,3-d]pyrimidine-7,1′-indane]-4-yl]-N,N-dimethyl-4,6,7,8-tetrahydropyrazolo[1,5-a][1,4]diazepine-2-carboxamide] stands under 10 nM; under `Cc1nc(-c2nn3c(c2Cl)CN(c2nc(OC[C@@]45CCCN4C[C@H](F)C5)nc4c2CN(C)[C@@]2(CCCc5ccccc52)C4)CCC3)no1` [Compound 87, 3-[3-chloro-5-[(7S)-2-[[(2R,8S)-2-fluoro-1,2,3,5,6,7-hexahydropyrrolizin-8-yl]methoxy]-6-methyl-spiro[5,8-dihydropyrido[4,3-d]pyrimidine-7,1′-tetralin]-4-yl]-4,6,7,8-tetrahydropyrazolo[1,5-a][1,4]diazepin-2-yl]-5-methyl-1,2,4-oxadiazole], under 10 nM.
Under `O=C(c1nn2c(c1Cl)CN(c1nc(OC[C@@]34CCCN3C[C@H](F)C4)nc3c1CO[C@@]1(CCc4c(Cl)cccc41)C3)CCC2)N1CCNCC1` [Compound 49, [3-chloro-5-[(7S)-4′-chloro-2-[[(2R,8S)-2-fluoro-1,2,3,5,6,7-hexahydropyrrolizin-8-yl]methoxy]spiro[5,8-dihydropyrano[4,3-d]pyrimidine-7,1′-indane]-4-yl]-4,6,7,8-tetrahydropyrazolo[1,5-a][1,4]diazepin-2-yl]-piperazin-1-yl-methanone] stands under 10 nM.
Under `F[C@H]1CN2CCC[C@@]2(COc2nc3c(c(N4C[C@H]5CC[C@@H](C4)N5)n2)COC2(CCCc4c(Br)cccc42)C3)C1` (stereo partly drawn) [Compound 10, 5′-bromo-4-(3,8-diazabicyclo[3.2.1]octan-3-yl)-2-[[(2R,8S)-2-fluoro-1,2,3,5,6,7-hexahydropyrrolizin-8-yl]methoxy]spiro[5,8-dihydropyrano[4,3-d]pyrimidine-7,1′-tetralin]] stands 10 to 100 nM; under `CN(C)CC1(COc2nc3c(c(N4CCCn5nc(C(=O)N(C)C)c(Cl)c5C4)n2)CN(C)[C@@]2(CCCc4ccccc42)C3)CC1(F)F` (stereo partly drawn) [Compound 97, 3-chloro-5-[(7S)-2-[[1-[(dimethylamino)methyl]-2,2-difluoro-cyclopropyl]methoxy]-6-methyl-spiro[5,8-dihydropyrido[4,3-d]pyrimidine-7,1′-tetralin]-4-yl]-N,N-dimethyl-4,6,7,8-tetrahydropyrazolo[1,5-a][1,4]diazepine-2-carboxamide], under 10 nM; under `F[C@H]1CN2CCC[C@@]2(COc2nc3c(c(N4CCCCCC4)n2)COC2(CCc4c(Cl)cccc42)C3)C1` (stereo partly drawn) [Compound 1, 4′-(azepan-1-yl)-4-chloro-2′-(((2R,7aS)-2-fluorotetrahydro-1H-pyrrolizin-7a(5H)-yl)methoxy)-2,3,5′,8′-tetrahydrospiro[indene-1,7′-pyrano[4,3-d]pyrimidine]], 1000 to 20000 nM.
Regarding `CN(C)C(=O)c1cc2n(n1)CCCN(c1nc(OC[C@@]34CCCN3C[C@H](F)C4)nc3c1CN(C)[C@@]1(CCCc4ccc(O)cc41)C3)C2` [Compound 39A, 5-[(7S)-2-[[(2R,8S)-2-fluoro-1,2,3,5,6,7-hexahydropyrrolizin-8-yl]methoxy]-7′-hydroxy-6-methyl-spiro[5,8-dihydropyrido[4,3-d]pyrimidine-7,1′-tetralin]-4-yl]-N,N-dimethyl-4,6,7,8-tetrahydropyrazolo[1,5-a][1,4]diazepine-2-carboxamide], the IC50 was under 10 nM.
Under `F[C@H]1CN2CCC[C@@]2(COc2nc3c(c(N4CCC=CCC4)n2)COC2(CCc4c(Cl)cccc42)C3)C1` (stereo partly drawn) [Compound 18, 4′-chloro-2-[[(2R,8S)-2-fluoro-1,2,3,5,6,7-hexahydropyrrolizin-8-yl]methoxy]-4-(2,3,6,7-tetrahydroazepin-1-yl)spiro[5,8-dihydropyrano[4,3-d]pyrimidine-7,1′-indane]] stands over 20000 nM; under `F[C@H]1CN2CCC[C@@]2(COc2nc3c(c(N4C[C@H]5CC[C@@H](C4)N5)n2)COC2(CCc4c(Cl)cccc42)C3)C1` (stereo partly drawn) [Compound 2, 4′-((1R,5S)-3,8-diazabicyclo[3.2.1]octan-3-yl)-4-chloro-2′-(((2R,7aS)-2-fluorotetrahydro-1H-pyrrolizin-7a(5H)-yl)methoxy)-2,3,5′,8′-tetrahydrospiro[indene-1,7′-pyrano[4,3-d]pyrimidine]], 10 to 100 nM; under `CN1Cc2c(nc(OC[C@@]34CCCN3C[C@H](F)C4)nc2N2CCC[C@]3(C2)NC(=O)NC3=O)C[C@]12CCc1ccccc12` [Compound 60, (5R)-9-[(7S)-2-[[(2R,8S)-2-fluoro-1,2,3,5,6,7-hexahydropyrrolizin-8-yl]methoxy]-6-methyl-spiro[5,8-dihydropyrido[4,3-d]pyrimidine-7,1′-indane]-4-yl]-1,3,9-triazaspiro[4.5]decane-2,4-dione], 100 to 1000 nM.
